From US10815200B2, “18F—tagged inhibitors of prostate specific membrane antigen (PSMA) and their use as imaging agents for prostate cancer” (DEUTSCHES KREBSFORSCHUNGSZENTRUM, priority 2015, dated 2020)

Key:
LNCaP cells = experiment: Specific cell uptake and internalization in LNCaP cells; format: cell-based, human
Protocol: During cell culture, cells were grown at 37° C. in an incubator with humidified air, equilibrated with 5% CO2. […] To determine the specific cell uptake and internalization, 10^5 cells were seeded in poly-L-lysine coated 24-well cell culture plates 24 h before incubation. After washing, the cells were incubated with 30 nM of the radiolabeled compounds for 45 min at 37° C. […] Cellular uptake was terminated by washing 3 times with 1 mL of ice-cold PBS. […] The cells were washed with 1 mL of ice-cold PBS and lysed using 0.3 N NaOH (0.5 mL). The surface-bound and the internalized fractions were measured in a gamma counter. The cell uptake was calculated as percent of the initially added radioactivity bound to 10^5 cells [% ID/10^5 cells].

[1] = system: LNCaP tumor (PSMA positive); format: in vivo, mice
Protocol: (§1) For in vivo experiments, 8 week old BALB/c nu/nu mice were subcutaneously inoculated into the right trunk with 5×10^6 LNCaP- or PC3-cells in 50% Matrigel. When the size of tumor was approximately 1 cm^3, the radiolabeled compound was injected via the tail vein (ca. 30 MBq, 60 pmol for μPET imaging; ca. 1 MBq, 60 pmol for organ distribution).
(§2) The F-18 labeled compounds were injected via tail vein (1-2 MBq per mouse; 60 pmol). At 1 h after injection, the animals were sacrificed. Organs of interest were dissected, blotted dry, and weighed. The radioactivity was measured with a gamma counter (Packard Cobra II, GMI, Minnesota, USA) and calculated as % ID/g.

[2] = system: PC3-tumor (PSMA negative); experiment: Organ distribution in mice carrying a PC3-tumor (PSMA negative); format: in vivo
Protocol: as §1, §2

LNCaP tumor xenografts = experiment: MicroPET in mice bearing LNCaP tumor xenografts; format: in vivo; details: 120-140 min p.i.
Protocol: For the microPET studies, 10-25 MBq of the radiolabeled compounds in a volume of 0.10 ml (60 pmol) were injected via a lateral tail vein into mice bearing LNCaP tumor xenografts. The anesthetized animals (2% sevoflurane, Abbott, Wiesbaden, Germany) were placed in prone position into the Inveon small animal PET scanner (Siemens, Knoxville, Tenn., USA) to perform dynamic microPET scans.
as §1

[3] = PET/CT dosimetry and kinetics in a healthy volunteer; format: in vivo, human
Protocol: The healthy subject was injected a total activity of 300 MBq and subsequently PET scans were performed on a Biograph mCT Flow scanner (Siemens, Erlangen, Germany) in three blocks. Block 1 contained PET-1 (start 5 min p.i.) to PET-7 (ending 140 min p.i.), block 2 contained PET-8 (start 180 min p.i.) and PET-9 (240-270 min p.i.), block 3 contained PET-10 (440-480 min p.i.). A non-enhanced low-dose CT (estimate 1.43 mSv, respectively) for attenuation correction was performed at the beginning of each block, followed by serial emission scans without moving the volunteer in between.
Kidneys, liver, spleen, whole heart, upper and lower large intestine, parotid glands, submandibular glands and urinary bladder were segmented into volumes of interest (VOIs) using a percentage of maximum threshold between 20% and 30% using the corresponding CT as guidance and then time activity curves (TACs) were calculated for all organs. The TAC for red marrow was derived from the venous blood samples and then the dose for the red marrow calculated (S. Shen et al., JNM 2002, 43, 1245-1253; G. Sgouros et al., JNM 1993, 34, 689-694.). The TAC for the urinary bladder content was a combination of estimated activity in the urinary bladder VOI in PET and activity measured in the voided urine. Curve fitting was applied to all TACs. Kidneys, salivary glands, upper and lower large intestine and heart were fitted with a bi-exponential function. For liver, spleen and urinary bladder content a mono-exponential fit to the last three time points was performed.
Absorbed and effective dose calculations were performed using the ICRP endorsed IDAC 1.0 package which is integrated in QDOSE. Additionally, residence times of all included source organs and remainder body were exported as an OLINDA case file for dose calculation (OLINDA 1.1). The absorbed doses to the salivary glands (parotid and submandibular glands) were determined using the spherical model. The organ masses for the salivary glands were estimated with 25 g for a parotid and 12.5 g for a submandibular gland (ICRP publication 89).

prostate cancer = experiment: First-in-man PET study in patients suffering from prostate cancer, with histopathology correlation; format: in vivo, human
Protocol: Ten patients (age 60-80 years) suffering from a newly diagnosed high-risk prostate cancer with a gleason score of 7-9 and initial PSA levels of 5-90 ng/ml were injected 100-360 MBq [^18F]-PSMA-1007 and subsequently PET scans were performed on a Biograph mCT Flow scanner (Siemens, Erlangen, Germany) at 1 and 3 h p.i. The results are depicted in FIGS. 17 and 18 as mean values of the SUVmean and SUVmax, respectively. The pictures gained with the PET scans are exemplified in FIGS. 19 and 20 as maximum intensity projections.
Eight of the patients underwent radical prostatectomy with extended pelvic lymphadenectomy. Analyses of prostatectomy specimen were performed blinded to PET-data under the supervision of dedicated uropathologists, according to International Society of Urological Pathology standards (T. H. van der Kwast et al. Mod. Phathol. 2011, 24, 16-25). Representative sections were stained by immunohistochemistry. The sections were deparaffinized in xylene and rehydrated in a graded ethanol series. Antigen retrieval was performed with a steam cooker using retrieval buffer (Target Retrieval Solution, Dako). A mouse monoclonal antibody against PSMA (clone 3E6, Dako) was used at a 1:100 dilution and incubated overnight at 4° C. ad subsequently immunodetection was performed using the Histostain-Plus detection kit (Invitrogen). Stained sections were scanned using a Nanozoomer 2.0-HT Scansystem (Hamamatsu Photonics) to generate digital whole slide images.

[4] = 30 nM radiolabeled compound, 45 min, 37° C., specific (PMPA block)

`O=C(O)CCC(NC(=O)NC(CCCCNC(=O)C(Cc1ccc2ccccc2c1)NC(=O)c1ccc(CNC(=O)C(CCC(=O)O)NC(=O)C(CCC(=O)O)NC(=O)c2ccc([18F])nc2)cc1)C(=O)O)C(=O)O` (centres unmarked) [PSMA-1007, (Glu)-(Urea)-(Lys)-(2-Nal)-(Bn)-(Glu)-(Glu)-FN] gave a Cell surface (LNCaP cells; [4]) of 2.7 % ID/10^5 cells, an Internalised (LNCaP cells; [4]) of 6.5 % ID/10^5 cells and an Internalized fraction (LNCaP cells; (Internalized activity/total activity)*100) of 71%. The “blocking of tumor binding in the blocking experiment” value ([1]; LNCaP tumor mice with PMPA block) was “a quantitative blocking of the binding was not observed”, the tumor uptake ([1]; LNCaP tumor mice, 1 h after injection, non-blocked) was “about 8.0±2.4 % ID/g” and the “uptake in non-target tissue such as the liver and the small intestine” value ([1]; mouse, in vivo) was “significantly reduced uptake”. The tumor uptake [2] was “practically no tumor uptake was observed”, the “SUVmax of LNCaP tumor” value (LNCaP tumor xenografts) was 3.1 and the “effective dose of a PET/CT scan” value ([3]; 200-250 MBq, healthy volunteer) was 4.3-5.4 mSv. For the same compound, the “blood pool activity found in the serum” value ([3]; healthy volunteer) was “More than 95%”, the effective dose per injected activity ([3]; healthy volunteer) was 0.0215 mSv/MBq and the clearance pathway ([3]; in comparison to other known PSMA-tracers) was “very unique hepatobiliary clearance with very small clearance via the renal pathway”. For the same compound, the “clearance from the blood pool” value ([3]; within the first 3 h after injection, healthy volunteer) was “more than 90%”, the “correlation of prostatectomy histopathology with PET images” value (prostate cancer) was “nearly perfect correlation” and the “diameter of detected lymph node metastases” value (prostate cancer) was at least 1 mm. The “specificity (correlation with pelvic lymphadenectomy samples)” value (prostate cancer) was 95% and the “tumor-to-background ratios in the primary tumor” value (prostate cancer; calculated from SUVmax) was “up to 10”.
